Source: article PMC3982558, “Influence of the π-coordinated arene on the anticancer activity of ruthenium(II) carbohydrate organometallic complexes” (Frontiers in Chemistry, 2013)

Molecular target: T1, cathepsin B (Bos taurus, UniProt P07688)
T1 construct: gene CTSB; Crude bovine spleen cathepsin B (Sigma C6286)
Experiment: colorimetric cathepsin B assay (Na-CBZ-L-lysine p-nitrophenyl ester), […] h preincubation
Type: biochemical
Conditions: read-out: IC50 values/μM Cat B

dichlorido(η^6-p-cymene)(3,5,6-bicyclophosphite-1,2-O-isopropylidene-α-D-glucofuranose)ruthenium(II) [1a]
IC50: 1.5 ± 0.2 µM

Dichlorido(η^6-biphenyl)(3,5,6-bicyclophosphite-1,2-O-cyclohexylidene-α-D-glucofuranose)ruthenium(II) [compound 6]
IC50: 8 ± 0.4 µM

dichlorido(η^6-p-cymene)(3,5,6-bicyclophosphite-1,2-O-cyclohexylidene-α-D-glucofuranoside)ruthenium(II) [1b]
IC50: 4 ± 0.6 µM
